Source: patent US10914725B2, “Culture medium additive, culture medium composition, and method for culturing cells or tissue using same” (NISSAN CHEMICAL INDUSTRIES, LTD., priority 2015, dated 2021)

What was measured:
[1] = system: adenocarcinomic human alveolar basal epithelial cell line A549; experiment: CellTiter-Glo cell survival assay of paclitaxel (Experimental Example 5); assay type: cell-based; details: for IC50: Homo sapiens, A549, cell survival assay by fluorescence, read-out: paclitaxel 50% inhibitory concentration; for relative cell number (no anticancer agent = 1): 10 days
Experimental: As a negative control, a medium composition containing 10 (v/v) % FBS alone in DMEM (manufactured by Wako Pure Chemical Industries, Ltd.) was prepared. As a comparison control, in the same manner as in Experimental Example 3, a medium composition containing 10 (v/v) % FBS and 0.015 (w/v) % of deacylated gellan gum in DMEM (manufactured by Wako Pure Chemical Industries, Ltd.) was prepared. Paclitaxel was also added at the above-mentioned concentration to the negative control and comparison control medium compositions, A549 cells were suspended therein and the suspensions were dispensed. Successively, the plate was cultured in a standing state in a CO2 incubator (37° C., 5% CO2) for 10 days.
CellTiter-Glo Luminescent Cell Viability Assay (manufactured by Promega) (100 μL) was added to each cell culture medium of the negative control and comparison control, the mixture was stood for 10 min at room temperature, and the amount of luminescence was measured by a microplate reader (“FlexStation 3”, manufactured by Molecular Devices) and according to the protocol recommended by Promega. The amount of luminescence of the medium alone was subtracted, whereby the number of viable cells was measured. In addition, 50% inhibitory concentration (nM) of paclitaxel by the amount of luminescence was calculated with the number of viable cells when paclitaxel was not added as 0% inhibition rate.

[2] = system: adenocarcinomic human alveolar basal epithelial cell line A549; experiment: High content analysis of anticancer agents by cell image analysis (Experimental Example 8); assay type: cell-based; details: for average cell number per sphere / average dead cell number in sphere / average sphere number per 20 mm^2 / projected area: 0.03 (w/v)% low-molecular agar medium, 7 days with agent;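 for projected area: Projected area in square micrometres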
Experimental: Adenocarcinomic human alveolar basal epithelial cell line A549 (manufactured by DS PHARMA BIOMEDICAL CO., LTD.) was suspended in the above-mentioned medium composition containing low-molecular agar at 11,000 cells/mL. […] The plate was stood in a CO2 incubator (37° C., 5% CO2) overnight. The next day, paclitaxel (manufactured by Wako Pure Chemical Industries, Ltd.) and trametinib (manufactured by SANTA CRUZ) were further added by 10 μl per 1 well at a final concentration of 0.001 μM, 0.01 μM and 0.1 μM, respectively, mitomycin C (manufactured by Wako Pure Chemical Industries, Ltd.) at a final concentration of 0.005 μM, 0.05 μM and 0.5 μM, and MK2206 (manufactured by SANTA CRUZ) at a final concentration of 0.001 μM, 0.01 μM, 0.1 μM and 1 μM. Successively, the plate was further cultured in a standing state in a CO2 incubator (37° C., 5% CO2) for 7 days.
Successively, a solution of 20 μg/mL Propidium Iodide (manufactured by BIOMOL) in DMEM (phenol red, L-glutamine free) (manufactured by Wako Pure Chemical Industries, Ltd.) was prepared and added at 10 μL per 1 well, and the culture medium was suspended. The plate was centrifuged at 1,500 rpm for 1 min, and high content analysis was performed by cell image analysis using a cell imaging apparatus (“ArrayScan VTI HCS Reader”, manufactured by Thermo Fisher Scientific). At that time, observation was performed with 20 fields of view per well using a ×10 objective lens, cell outline and cell nucleus were detected from Hoechst33342 fluorescence image, and dead cells were detected from propidium iodide fluorescence image. In addition, 50% inhibitory concentration (nM) of each anticancer agent by high content analysis was calculated from the number of spheres constituted of not less than 5 cells. In this case, the value without addition of the anticancer agent was taken as 0% sphere formation inhibitory rate.

Q: What does the source list for `CC(=O)O[C@H]1C(=O)[C@@]2(C)[C@H]([C@H](OC(=O)c3ccccc3)[C@]3(O)C[C@H](OC(=O)[C@H](O)[C@@H](NC(=O)c4ccccc4)c4ccccc4)C(C)=C1C3(C)C)[C@]1(OC(C)=O)CO[C@@H]1C[C@@H]2O` [paclitaxel, Paclitaxel]?
A: IC50 ([1]; comparison control medium (0.015 (w/v)% deacylated gellan gum)): 2.9 nM; IC50 ([1]; negative control medium (DMEM, 10% FBS alone)): 4.4 nM; relative cell number (no anticancer agent = 1) ([1]; paclitaxel 0.001 μM, comparison control medium (0.015 (w/v)% deacylated gellan gum)): 0.842; relative cell number (no anticancer agent = 1) ([1]; paclitaxel 0.001 μM, negative control medium (DMEM, 10% FBS alone)): 1.004; relative cell number (no anticancer agent = 1) ([1]; paclitaxel 0.01 μM, comparison control medium (0.015 (w/v)% deacylated gellan gum)): 0.156; relative cell number (no anticancer agent = 1) ([1]; paclitaxel 0.01 μM, negative control medium (DMEM, 10% FBS alone)): 0.249; IC50 ([2]; Homo sapiens, A549, high content analysis by cell image analysis, number of spheres of not less than 5 cells, low-molecular agar-containing medium, read-out: 50% inhibitory concentration): 4.1 nM; average cell number per sphere ([2]; agent 0.001 μM): 4.817; average dead cell number in sphere ([2]; agent 0.001 μM): 0.064; average sphere number per 20 mm^2 ([2]; agent 0.001 μM): 297.7; projected area ([2]; agent 0.001 μM): 1271 μm^2; average cell number per sphere ([2]; agent 0.01 μM): 2.3; average dead cell number in sphere ([2]; agent 0.01 μM): 0.336; average sphere number per 20 mm^2 ([2]; agent 0.01 μM): 187; projected area ([2]; agent 0.01 μM): 797 μm^2; average cell number per sphere ([2]; agent 0.1 μM): 1.662; average dead cell number in sphere ([2]; agent 0.1 μM): 0.591; average sphere number per 20 mm^2 ([2]; agent 0.1 μM): 133; projected area ([2]; agent 0.1 μM): 647 μm^2
